Legend:
[1] = test system: BAD phosphorylation at Ser99; experiment: Western blot of BAD phosphorylation at Ser99 in TNBC cells; assay type: cell-based, human; conditions: MDA-MB-231 and BT549 cells; for level of pBADSer99/BAD: 1 μM
[2] = test system: BAD phosphorylation at Ser75 and Ser118; experiment: Western blot of BAD phosphorylation at Ser75 and Ser118 in TNBC cells; assay type: cell-based, human; conditions: MDA-MB-231 and BT549 cells
Protocol: To compare the binding affinity of NCK and NPB towards BAD, we performed surface plasmon resonance (SPR) measurement by immobilizing BAD protein on a sensor chip with NCK or NPB as analyte. Representative reference-subtracted overlaid sensorgrams and the kinetic parameters are specified in Fig. 2d and Supplementary Fig. 6A. […] Additionally, the pharmacological inhibition of BAD phosphorylation by NCK or NPB in TNBC cells was evaluated. […] Furthermore, the comparative potencies of NPB and NCK were evaluated in eight TNBC cell lines using total cell number assay in 2D culture and cell viability in 3D culture (Supplementary Fig. 6C, D).

MDA-MB-231 xenografts [3] = experiment: Orthotopic xenograft, single drug study; assay type: in vivo, BALB/c-nude mice
Protocol: Next, the in vivo efficacy of NCK was examined in mice injected orthotopically with MDA-MB-231 cells to form xenografts. When the xenograft volume reached 100 mm^3, mice were randomly grouped and injected i.p. with vehicle, NCK (5 mg/kg q.d.) or NCK (20 mg/kg q.d.) for 21 days.

MDA-MB-231 xenografts [4] = experiment: Orthotopic xenograft, combination study; assay type: in vivo, BALB/c-nude mice; conditions: for cells of human origin in lung sections (IHC staining of human HPRT): MDA-MB-231-engrafted mice; for % Regression: Complete Response (100%) / % Regression: Partial Response (>50%) / % Regression: Disease Progression: MDA-MB-231 xenograft; for % Regression: Disease Progression: day 21 (xenograft volume >100 mm^3); for lung metastasis incidence (mice with detectable lung hHPRT mRNA, qPCR): n = 6, vehicle 3 out of 6
Protocol: (§1) In vivo bioluminescent imaging was performed to determine the incidence and metastatic burden of luciferase-labeled 4T1 cells. Mice were injected i.p. with 10 mg/ml of D-luciferin (Gold Biotechnology, MO, USA) and imaged using a PerkinElmer IVIS Spectrum system. PDX were generated as previously described by transplanting fresh fragments orthotopically into 8-week-old female nonobese diabetic (NOD)/severe combined immunodeficient (SCID) mice (Beijing Vital River Laboratory Animal Technology Co., Beijing, China) (P1, passage 1)[40]. The P1 xenografts were then fragmented, digested into single-cell suspension and implanted into mammary fat pad (100 μL PBS containing growth factor reduced 50% Matrigel) of NOD/SCID mice. Once orthotopic xenografts reached an approximate size of 100 mm^3, the mice were randomly divided into three groups (n = 8) for single drug studies and six groups (n = 6) for combination studies and Kaplan-Meier (KM) analyses. […] Animal body weight and xenograft size were measured daily using an electronic balance and a digital caliper, respectively. Xenograft volume (mm^3) was calculated by using the formula: 0.52 × length × [width]^2. Complete response (CR) was achieved if the average xenograft volume for the treatment group was unable to be determined for two or more consecutive measurements. Partial response (PR) was achieved if the average xenograft volume reduced to <50 mm^3 for two or more consecutive measurements. After 3-week drug treatment, all mice were sacrificed by CO2 inhalation. Tumor and vital organs were weighed and isolated for further analysis. IHC analysis of xenograft histology sections and quantitative polymerase chain reaction (qPCR) were performed as previously described.
Data represent means ± SD. *P < 0.05, **P < 0.01, and ***P < 0.001.
Data represent means ± SD (n=6). *P < 0.05, **P
< 0.01, and ***P < 0.001.
Abbreviations: ALT/GOT, alanine
aminotransferase/ glutamic oxaloacetic transaminase; AST/GPT, aspartate aminotransferase/
glutamic pyruvic transaminase; CREA, creatinine; UREA, urea; and ALB, albumin. Data
represent means ± SD. *P < 0.05, **P < 0.01, and ***P < 0.001.

4T1-luciferase cells = test system: 4T1-luciferase cells
Protocol: Since metastasis is the primary contributor to mortality and poor prognosis for TNBC patients, the therapeutic potential of NCK, TKIs or combined NCK-TKI treatment on TNBC metastasis was further evaluated with an experimental lung metastasis model.
as §1, with “described. […] For PDX, xenograft growth was monitored daily by measurement of the xenograft volume until mice humane endpoint ( ~ 1000 mm^3).” for “described.”
luciferase cell generated metastasis model. Scale bar, 20 µm. (C) Animal weight of each
treatment group was indicated. (D) Changes in relative lung, liver, spleen, heart and kidney
(CRI) or combinations during the study at day 9.

MDA-MB-231 xenografts [5] = experiment: Orthotopic xenograft, combination study; assay type: in vivo; conditions: Balb/c-nude mice, day 22; NCK 20 mg/kg, OSI 50 mg/kg, CRI 50 mg/kg
MDA-MB-231 cells = experiment: CASPASE 3/7 DEVD assay; conditions: MDA-MB-231, 5 μM NCK
[6] = NCK 5 and 20 mg/kg q.d. i.p. 21 days
[7] = Balb/c-nude mice, day 22, NCK 20 mg/kg, OSI 50 mg/kg, CRI 50 mg/kg
[8] = day 21, NCK 20 mg/kg q.d., OSI-930 20 mg/kg q.d., Crizotinib 50 mg/kg b.i.w.
[9] = serum, NCK 20 mg/kg, OSI 50 mg/kg, CRI 50 mg/kg
[10] = BALB/c mice, day 9, NCK 20 mg/kg, OSI 50 mg/kg, CRI 50 mg/kg

## Oc1ccccc1C(c1cccnc1)N1CCN(c2cccc(Cl)c2Cl)CC1 (stereo not drawn) [NCK, 2-((4-(2,3-dichlorophenyl)piperazin-1-yl)(pyridin-3-yl)methyl) phenol]
[1]
  level of pBADSer99/BAD: significantly decreased the level of pBADSer99/BAD
[1]; vs DMSO
  inhibition of BAD phosphorylation at Ser99 (decreased pBADSer99/BAD ratio), effective concentration: ≥ 0.1 μM
[2]
  levels of pBADSer75/BAD and pBADSer118/BAD: did not alter
MDA-MB-231 xenografts [3]; NCK 5 mg/kg q.d. i.p. 21 days
  xenograft volume and weight vs vehicle: significantly reduced xenograft volume
MDA-MB-231 xenografts [3]; NCK 20 mg/kg q.d. i.p. 21 days
  xenograft volume and weight vs vehicle: significantly reduced xenograft volume
MDA-MB-231 xenografts [3]; [6]
  MKI67 positivity in xenografts: decreased MKI67 positivity
  TUNEL scores in xenografts: increased TUNEL scores
  body weight vs vehicle: no significant change in body weight
  pBADSer99 in resected xenografts (IHC) vs vehicle: significantly reduced pBADSer99
MDA-MB-231 xenografts [4]; [7]
  Relative Heart Weight: 0.74±0.16%
  Relative Kidney Weight: 1.60±0.14%
  Relative Lung Weight: 2.39±0.57%
  Relative Spleen Weight: 0.77±0.14%
MDA-MB-231 xenografts [4]
  cells of human origin in lung sections (IHC staining of human HPRT): not in the lung sections
  % Regression: Disease Progression: 50%
  lung metastasis incidence (mice with detectable lung hHPRT mRNA, qPCR): 1/6
MDA-MB-231 xenografts [4]; day 21
  % Regression: Complete Response (100%): 33%
  % Regression: Partial Response (>50%): 17%
MDA-MB-231 xenografts [4]; NCK 20 mg/kg q.d.
  MKI67 positivity in xenograft vs vehicle: significantly reduced MKI67 positivity
  TUNEL scores in xenograft vs vehicle: increased TUNEL scores
  level of pBADSer99 in resected xenograft vs vehicle: reduced the level of pBADSer99
MDA-MB-231 xenografts [4]; [8]
  complete regression of xenografts: 33.33%
  complete regression of xenografts (number of xenografts): 2/6
MDA-MB-231 xenografts [4]; [9]
  ALB: 28.48 ± 3.45 g/L
  ALT/GOT: 75.66±23.55 U/L
  AST/GPT: 296.04±102.48 U/L
  CREA: 23.49 ± 3.02 µmol/L
  UREA: 14.01 ± 3.33 mmol/L
4T1-luciferase cells; 4T1-luciferase metastasis model
  lung metastases (bioluminescent signals) vs control: significantly abrogated lung metastases
4T1-luciferase cells; [10]
  Relative Heart Weight: 0.51±0.07%
  Relative Kidney Weight: 1.40±0.07%
  Relative Liver Weight: 4.55±0.21%
  Relative Lung Weight: 1.70±0.49%
  Relative Spleen Weight: 1.54±0.54%
MDA-MB-231 xenografts [5]
  Colon Length: 9.55±0.84 cm
  Relative Liver Weight: 5.70±0.38%
MDA-MB-231 cells
  CASPASE 3/7 activity vs vehicle: increased CASPASE 3/7 activity

## O=C(Nc1ccc(OC(F)(F)F)cc1)c1sccc1NCc1ccnc2ccccc12 [OSI-930]
[1]
  level of pBADSer99/BAD: significantly decreased the level of pBADSer99/BAD
MDA-MB-231 xenografts [4]
  cells of human origin in lung sections (IHC staining of human HPRT): not in the lung sections
  % Regression: Disease Progression: 67%
  lung metastasis incidence (mice with detectable lung hHPRT mRNA, qPCR): none of the mice had lung metastasis
MDA-MB-231 xenografts [4]; day 21
  % Regression: Complete Response (100%): 0%
  % Regression: Partial Response (>50%): 33%
MDA-MB-231 xenografts [4]; [9]
  ALB: 30.61 ± 0.84 g/L
  ALT/GOT: 81.99±27.99 U/L
  AST/GPT: 298.22±75.62 U/L
  UREA: 12.36 ± 6.01 mmol/L
MDA-MB-231 xenografts [5]
  Colon Length: 9.34±0.67 cm

From publication PMC10781691, “Vertical pathway inhibition of receptor tyrosine kinases and BAD with synergistic efficacy in triple negative breast cancer” (NPJ Precision Oncology, 2024)
